Test results from US20230016424A1, “HYBRID AMIDE DERIVATIVES OF AMPHOTERICIN B” (The Board of Trustees of the University of Illinois, priority 2019, published 2023).
In brackets after ≈: the same amount, converted by molar mass.

Key:
Histoplasma capsulatum = assay: microbe, parasite or virus in culture; type: cell-based
Syncephalastrum sp. = assay: MIC against moulds; type: cell-based; conditions: 6 isolates
[1] = Liver Microsome stability (In Vitro Metabolism); type: in vitro ADME; conditions: for Remaining (T = NCF60 min): no cofactor 60 min
Description: Working Compound solution: 10 uM in 50 mM potassium phosphate buffer with 9% MeOH and 1% DMSO
Microsome solution: working concentration 0.625 mg/ml
Stopping solution: Cold ACN with 200 ng/ml Tolbutamide and 200 ng/ml Labetalol (4° C.)
Procedure: In the well plates (T5, T10, T20, T30, T60, NCF60 (no cofactor 60)) 10 uL of the compound/control working solution was added (except T0 and matric blank) followed by microsome solution (80 uL) and the mixture was incubated at 37 C for about 10 mins. A solution of potassium phosphate (10 ul of 50 mM) was added to NCF60 well, incubated at 37 C and time counting started. After prewarming 10 ul of NADPH regenerating solution was added to each plate to start the reaction. At different time point 300 uL/well of stopping solution to terminate the reaction. The sampling plates were shaken for 10 mins and the centrifuged for 20 mins at 4000 rpm. The supernatant was half diluted with ultra pure water and the analyzed using LCMS.

CD-1 mice = type: in vivo; conditions: for Mouse single IV injection: mortality: 40 mpk
Description: Procedure: The experiment was performed using the commercial Fungizone and Ambisome. Compound BA was directly used after purification without any special treatment. […] . Female CD-1 mice were (3 per group; body weight 30 g each) injected with the drugs/compounds and monitored for 24 h for death or distress signs.
Compound BA was directly used after purification without any special treatment. […] . Female CD-1 mice were (3 per group; body weight 30 g each) injected with the drugs/compounds and monitored for 24 h for death or distress signs.

KIM1, LCN2, TIMP1, SPP1 = assay: Biomarkers of renal injury by RTPCR after IV injection; design: species or system mice; conditions: mouse, in vivo
yeast (5 strains) = assay: MICavg yeast (5 strains); type: cell-based; design: unit not given beside the values
C. albicans SN250 = assay: MIC; type: cell-based, Candida albicans
[2] = In vivo mouse pharmacokinetics, IV; design: species or system CD-1 mice
Description: The experiment was performed using the compounds synthesized in lab and purified by preparative HPLC (>91%). All the compounds were dissolved in D5W (5% dextrose in water) at for IV injection. Female CD-1 mice were (3 per group; body weight approx. 30 g each) injected with the compounds (as per planned dosage) and the blood samples were collected at different time points and the compound content was analysed using the following procedure.
An aliquot of […], IS solution (100 ng/mL Labetalol & 100 ng/mL Tolbutamide in ACN), the mixture was vortex-mixed well and centrifuged at 3900 rpm for 10 min, 4[…]. An aliquot of 90 μL supernatant was transferred to sample plate and mixed with 60 μL water, then the plate was shaken at 800 rpm for 10 min. 15.0 μL supernatant was injected for LC-MS/MS analysis.

C. krusei = assay: MIC; type: cell-based
C. glabrata = assay: MIC; type: cell-based
C. tropicalis = assay: MIC; type: cell-based
A. fumigatus 1163 = assay: MIC; type: cell-based

C[C@@H]1[C@H](O)[C@@H](C)/C=C/C=C/C=C/C=C/C=C/C=C/C=C/[C@H](OC2O[C@H](C)[C@@H](O)[C@H](N)[C@@H]2O)C[C@@H]2O[C@](O)(C[C@@H](O)C[C@@H](O)[C@H](O)CC[C@@H](O)C[C@@H](O)CC(=O)O[C@H]1C)C[C@H](O)[C@H]2C(=O)O (stereo partly drawn) [AmB, Amphotericin B]
MIC (Histoplasma capsulatum; Histoplasma capsulatum, read-out: MIC Histoplasma capsulatum): 0.06 µM (≈ 0.0554 µg/mL) | MIC (Syncephalastrum sp.; Syncephalastrum): 0.06 µM (≈ 0.0554 µg/mL) | CLint scaled at 1 µM ([1]; Dog liver microsomes): < 14 mL/min/kg | Remaining (T = 60 min) ([1]; Dog liver microsomes): 106% | half-life at 1 µM ([1]; Dog liver microsomes): > 2.42 h | microsomal CLint at 1 µM ([1]; Dog liver microsomes): < 9.6 µL/min/mg | Remaining (T = NCF60 min) ([1]; Dog liver microsomes): 94.7% | CLint scaled at 1 µM ([1]; Human liver microsomes): < 8.6 mL/min/kg | Remaining (T = 60 min) ([1]; Human liver microsomes): 100% | half-life at 1 µM ([1]; Human liver microsomes): > 2.42 h | microsomal CLint at 1 µM ([1]; Human liver microsomes): < 9.6 µL/min/mg | Remaining (T = NCF60 min) ([1]; Human liver microsomes): 104% | CLint scaled at 1 µM ([1]; Monkey liver microsomes): < 13 mL/min/kg | Remaining (T = 60 min) ([1]; Monkey liver microsomes): 142% | half-life at 1 µM ([1]; Monkey liver microsomes): > 2.42 h | microsomal CLint at 1 µM ([1]; Monkey liver microsomes): < 9.6 µL/min/mg | Remaining (T = NCF60 min) ([1]; Monkey liver microsomes): 105% | CLint scaled at 1 µM ([1]; Mouse liver microsomes): < 38 mL/min/kg | Remaining (T = 60 min) ([1]; Mouse liver microsomes): 106% | half-life at 1 µM ([1]; Mouse liver microsomes): > 2.42 h | microsomal CLint at 1 µM ([1]; Mouse liver microsomes): < 9.6 µL/min/mg | Remaining (T = NCF60 min) ([1]; Mouse liver microsomes): 93.1% | CLint scaled at 1 µM ([1]; Rat liver microsomes): < 17 mL/min/kg | Remaining (T = 60 min) ([1]; Rat liver microsomes): 121% | half-life at 1 µM ([1]; Rat liver microsomes): > 2.42 h | microsomal CLint at 1 µM ([1]; Rat liver microsomes): < 9.6 µL/min/mg | Remaining (T = NCF60 min) ([1]; Rat liver microsomes): 111% | Mouse single IV injection: mortality (CD-1 mice): 0/3 | Renal toxicity biomarkers KIM1, LCN2, TIMP1, SPP1 (KIM1, LCN2, TIMP1, SPP1): elevated | MICavg yeast (5 strains) (yeast (5 strains)): 0.23

CC1C=CC=CC=CC=CC=CC=CC=CC(OC2OC(C)C(O)C(N)C2O)CC2OC(O)(CC(O)CC(O)C(O)CCC(O)CC(O)CC(=O)OC(C)C(C)C1O)CC(O)C2C(=O)NCCO (stereo not drawn) [Compound BA]
MIC C. albicans SN250 (C. albicans SN250): 0.25 µM (≈ 0.242 µg/mL) | MIC Histoplasma capsulatum (Histoplasma capsulatum): 0.06 µM (≈ 0.058 µg/mL) | MIC (Syncephalastrum sp.): 1 µM (≈ 0.967 µg/mL) | CL ([1]; Dog liver microsomes): <9.6 µL/min/mg | Remaining (T = 60 min) ([1]; Dog liver microsomes): 111% | T1/2 ([1]; Dog liver microsomes): >2.42 h | CL ([1]; Human liver microsomes): <9.6 µL/min/mg | Remaining (T = 60 min) ([1]; Human liver microsomes): 99.9% | T1/2 ([1]; Human liver microsomes): >2.42 h | CL ([1]; Monkey liver microsomes): <9.6 µL/min/mg | Remaining (T = 60 min) ([1]; Monkey liver microsomes): 108% | T1/2 ([1]; Monkey liver microsomes): >2.42 h | CL ([1]; Mouse liver microsomes): <9.6 µL/min/mg | Remaining (T = 60 min) ([1]; Mouse liver microsomes): 97.7% | T1/2 ([1]; Mouse liver microsomes): >2.42 h | CL ([1]; Rat liver microsomes): <9.6 µL/min/mg | Remaining (T = 60 min) ([1]; Rat liver microsomes): 115% | T1/2 ([1]; Rat liver microsomes): >2.42 h | Number of Mice Alive (CD-1 mice; 40 mg/kg IV, 24 h): 3/3 | Number of Mice Distress-Fee (CD-1 mice; 40 mg/kg IV, 24 h): 3/3 | Mouse single IV injection: mortality (CD-1 mice): 0/4 | Tolerability in mice (CD-1 mice; IV in D5W): Well-Tolerated | In vivo PK AUC0-inf ([2]; 1 mg/kg IV): 7488] ng*hr/mL | In vivo PK Cl ([2]; 1 mg/kg IV): 2.24 mL/min/kg | In vivo PK T1/2 ([2]; 1 mg/kg IV): 6.87 h | In vivo PK AUC0-inf ([2]; 5 mg/kg IV): 26694 ng·h/mL | In vivo PK Cl ([2]; 5 mg/kg IV): 3.13 mL/min/kg | In vivo PK T1/2 ([2]; 5 mg/kg IV): 8.00 h | MICavg yeast (5 strains) (yeast (5 strains)): 0.59

CC1C=CC=CC=CC=CC=CC=CC=CC(OC2OC(C)C(O)C(N)C2O)CC2OC(O)(CC(O)CC(O)C(O)CCC(O)CC(O)CC(=O)OC(C)C(C)C1O)CC(O)C2C(=O)NCCF (stereo not drawn) [Compound BM]
MIC C. krusei (C. krusei): 1000 µM (≈ 969 µg/mL) | MIC C. glabrata (C. glabrata): 250 µM (≈ 242 µg/mL) | MIC C. tropicalis (C. tropicalis): 500 µM (≈ 485 µg/mL) | MIC A. fumigatus 1163 (A. fumigatus 1163): 1000 µM (≈ 969 µg/mL) | MIC Histoplasma capsulatum (Histoplasma capsulatum): 0.06 µM (≈ 0.0581 µg/mL) | MIC (Syncephalastrum sp.): 1 µM (≈ 0.969 µg/mL) | MICavg yeast (5 strains) (yeast (5 strains)): 0.58
